Assay results reported in patent US20250134874A1, “PHARMACEUTICAL FORMULATIONS COMPRISING 3-({[(4R)-7-{METHYL[4-(PROPAN-2-YL)PHENYL]AMINO}-3,4-DIHYDRO-2H-1-BENZOPYRAN-4-YL]METHYL}AMINO)PYRIDINE-4-CARBOXYLIC ACID” (TACHYON THERAPEUTICS, INC., priority 2021, published 2025).

How the values were obtained:
[1] = Particle size distribution by dynamic light scattering (Zetasizer); type: physicochemical; conditions: in length
Method: Results: Particle size distribution as determined by dynamic light scattering of Compound 1 lysine salt nanosuspension post milling is shown below in Table 1B. Samples for particle size distribution was prepared by diluting the Nano milled sample by 100-fold with Di-water. Zetasizer was utilized to measure particle size distribution. PdI is the representation of the distribution of size populations within a given sample. This is a numerical range from 0.0 (for a perfectly uniform sample) through 1.0 (for a highly polydisperse sample with multiple particle size populations). The value D10 refers to a diameter of particles in the sample wherein 10% of the particles in the sample have a diameter smaller than this value (118.8 nm). The value D50 refers to a diameter of particles in the sample wherein 50% of the particles have a diameter smaller than this value (249.0 nm). The value D90 refers to a diameter of particles in the sample wherein 90% of the particles in the sample have a diameter smaller than this value (611 nm).
The stability of the nanosuspension based on particle size distribution under refrigerated condition and room condition is shown below in Table 2.

[2] = In vitro dissolution testing (USP Apparatus 1, basket); type: physicochemical; conditions: DI water
Method: Dissolution and assay testing for API, F1, F7, F9, F10, F11 and F12.
• 6. Transfer 500 mL of DI water dissolution medium into each vessel. • 7. Equilibrate the dissolution medium to 37.0±0.5° C. • 8. Transfer 600 mg of each formulation granule into a capsule. • 9. Transfer a capsule into a basket and lower to the position. Start stirring at 100 RPM. • 10. At the stated time(s), sample 1 mL solutions by auto-sampler. Assay Sample Preparation (0.3 mg/mL): • 11. Weigh out 18 mg of granules into a […] volumetric flask. • 12. Dissolve and dilute up to the volume with Diluent (50% ACN in H2O). • 13. Mix well.

Structure (SMILES): CC(C)c1ccc(N(C)c2ccc3c(c2)OCC[C@H]3CNc2cnccc2C(=O)O)cc1.NCCCC[C@H](N)C(=O)O [Compound 1 Lysine salt, 3-({[(4R)-7-{methyl[4-(propan-2-yl)phenyl]amino}-3,4-dihydro-2H-1-benzopyran-4-yl]methyl}amino)pyridine-4-carboxylic acid, L-lysine salt]
- initial particle size prior to milling [1]: 6-15 micrometer
- release after 120 minutes [2]: no release at all
